# Assay results taken from PubChem BioAssay (NCI).
# “And” between values parts separate entries of the source, which are not always exact repeats. Equal entries are not always repeated.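 In this assay, cells in 96-well plates receive the compound at five concentrations for 48 hours. Endpoints are linearly interpolated between the surrounding concentrations. GI50: concentration for 50% inhibition of growth. TGI: concentration producing complete growth inhibition.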
# Experiments:
# Experiment in all cases: NCI anticancer screen, dose series, 48 h
# NCI/ADR-RES ovarian = system: NCI/ADR-RES ovarian
# T-47D breast = system: T-47D breast
# UACC-257 melanoma = system: UACC-257 melanoma
# SR leukemia = system: SR leukemia
# HCT-116 colon = system: HCT-116 colon
# HT29 colon = system: HT29 colon
# A549 NSCLC = system: A549 NSCLC
# OVCAR-3 ovarian = system: OVCAR-3 ovarian
# SF-539 CNS = system: SF-539 CNS
# SK-MEL-28 melanoma = system: SK-MEL-28 melanoma
Molecule,GI50 (NCI/ADR-RES ovarian) [µM],TGI (NCI/ADR-RES ovarian) [µM],GI50 (T-47D breast),TGI (T-47D breast),GI50 (UACC-257 melanoma),TGI (UACC-257 melanoma),GI50 (SR leukemia),TGI (SR leukemia),GI50 (HCT-116 colon),TGI (HCT-116 colon),GI50 (HT29 colon),TGI (HT29 colon),GI50 (A549 NSCLC),TGI (A549 NSCLC),GI50 (OVCAR-3 ovarian),TGI (OVCAR-3 ovarian),GI50 (SF-539 CNS),TGI (SF-539 CNS),GI50 (SK-MEL-28 melanoma),TGI (SK-MEL-28 melanoma) [µM]
Cn1cc(C2=C(c3cn(CCCCC(=N)N)c4ccccc34)C(=O)NC2=O)c2ccccc21,> 25,> 25,> 25 µM,> 25 µM,> 25 µM,> 25 µM,11.1 µM,> 25 µM,17.5 µM,> 25 µM,> 22.9 µM,> 25 µM,> 25 µM,> 25 µM,> 23.7 µM,> 25 µM,> 21.6 µM,> 25 µM,> 25 µM,> 25
Cn1cc(-c2nc(N[C@@H]3CCCC[C@@H]3N)c(F)c3c2C(=O)NC3)cn1,> 100,> 100,24.8 µM and 33.7 µM,77.3 µM and > 96.6 µM,19.4 µM and 23.9 µM,98.6 µM and > 88.5 µM,2.26 µM and 2.92 µM,31.9 µM and 36 µM,3.66 µM and 4.67 µM,47.7 µM and > 83.3 µM,4.33 µM and 5.99 µM,81.5 µM and > 94.4 µM,6.47 µM and 9.22 µM,75.5 µM and 81.1 µM,15.1 µM and 15.6 µM,42.1 µM and 38.7 µM,2.81 µM and 3.16 µM,13.9 µM and 16.1 µM,8.96 µM and 10.8 µM,> 100
CN1CCN(c2ccc3nc(-c4ccc(OCCCCN5CCN(CCCCN6C(=O)c7cccc8cccc(c78)C6=O)CC5)cc4)[nH]c3c2)CC1,> 100,> 100,31.2 µM,> 100 µM,30.3 µM,74.7 µM,12.9 µM,> 100 µM,> 100 µM,> 100 µM,86.4 µM,> 100 µM,> 100 µM,> 100 µM,36.6 µM,> 100 µM,33.5 µM,> 100 µM,19.4 µM,49.9
O=C(/C=C/c1ccco1)c1ccc(Nc2nc(Nc3ccc(F)cc3)nc(Nc3ccc(F)cc3)n2)cc1,15.1,52.1,11.4 µM,59.8 µM,> 100 µM,> 100 µM,2.37 µM,5.84 µM,21 µM,> 100 µM,18.1 µM,> 100 µM,19.8 µM,> 100 µM,16.9 µM,45.9 µM,24.8 µM,63.5 µM,18.3 µM,44.3
O=S(=O)(O)SCCNCCCCCC1CCCCC1,–,41.3,–,35.7 µM,–,19.5 µM,–,> 33.3 µM,–,10.2 µM,–,19.1 µM,–,23 µM,–,11.2 µM,–,19.6 µM,–,18.3
COc1cc(/C=N/NC(=O)c2ccccc2Nc2cccc(C(F)(F)F)c2)cc(OC)c1OC,3.87,14.4,3.33 µM,13.5 µM,4.36 µM,15.4 µM,1.3 µM,4.16 µM,2.48 µM,6.4 µM,1.67 µM,10.8 µM,3.6 µM,10.8 µM,0.797 µM,2.33 µM,2.14 µM,5.62 µM,2.28 µM,8.16
O=C(CCCCCCCCC(=O)N/N=C\c1cc(Cl)ccc1O)N/N=C\c1cc(Cl)ccc1O,0.294,–,1.48 µM,> 100 µM,0.306 µM,–,0.0955 µM,16.7 µM,0.308 µM,> 100 µM,> 25.5 µM,> 100 µM,0.98 µM,> 100 µM,0.311 µM,> 100 µM,0.339 µM,> 46.8 µM,2.64 µM,> 100
COC(=O)/C(=N\Nc1nnc(C)n1N)C(C#N)c1ccccc1 (stereo unspecified),–,> 100,–,> 100 µM,–,> 100 µM,–,> 100 µM,–,> 100 µM,–,> 100 µM,–,> 100 µM,–,> 100 µM,–,> 100 µM,–,> 100
Cn1cc(NC(=O)Nc2cc(C(=O)Nc3cc(C(=O)Nc4cc(S(=O)(=O)O)c5cc(S(=O)(=O)O)cc(S(=O)(=O)O)c5c4)n(C)c3)n(C)c2)cc1C(=O)Nc1cc(C(=O)Nc2cc(S(=O)(=O)O)c3cc(S(=O)(=O)O)cc(S(=O)(=O)O)c3c2)n(C)c1,–,> 100,–,> 100 µM,–,> 100 µM,–,> 100 µM,–,> 100 µM,–,> 100 µM,–,> 100 µM,–,> 100 µM,–,> 100 µM,–,> 100
Cc1cc(Br)cc(C)c1NC(=O)C(=O)Nn1c(=S)[nH]c2ccccc2c1=O,–,> 100,–,> 100 µM,–,> 100 µM,–,> 100 µM,–,> 100 µM,–,> 100 µM,–,> 100 µM,–,> 100 µM,–,> 100 µM,–,> 100
Cc1ccc(S(=O)(=O)NC(CO)C(=O)O)cc1 (stereo unspecified),–,> 100,–,> 100 µM,–,> 100 µM,–,> 100 µM,–,> 100 µM,–,> 100 µM,–,> 100 µM,–,> 100 µM,–,> 100 µM,–,> 100
O=Cc1ccc(N2CCN(c3ccc(C=O)cc3)CC2)cc1,> 100,> 100,3.35 µM,32.6 µM,> 100 µM,> 100 µM,> 100 µM,> 100 µM,71.5 µM,> 100 µM,> 100 µM,> 100 µM,40.1 µM,> 100 µM,> 100 µM,> 100 µM,> 100 µM,> 100 µM,> 100 µM,> 100
H-QIYKKYRTWYRKAWKVLGKV-NH2,4.81,> 100,2.06 µM,5.2 µM,13.8 µM,51.6 µM,3.58 µM,> 100 µM,10.8 µM,77.1 µM,20.8 µM,> 100 µM,12.7 µM,47.7 µM,4.3 µM,22.3 µM,2.21 µM,4.98 µM,4.89 µM,22.5
Cc1c(Cl)cccc1NC(=O)c1sc2nc3c(cc2c1N)CCCC3,0.396,> 100,0.402 µM,> 100 µM,0.688 µM,> 100 µM,0.315 µM,> 100 µM,0.425 µM,> 100 µM,0.369 µM,> 100 µM,0.984 µM,> 100 µM,0.378 µM,> 100 µM,0.328 µM,–,–,> 100
O=C1/C(=C\c2ccccc2)C2OCC=C3CN4CCC56c7ccccc7N1C5C2C3CC46 (stereo unspecified),> 100,> 100,64.8 µM,> 100 µM,2.16 µM,4.11 µM,2.65 µM,8.76 µM,6 µM,> 100 µM,2.07 µM,5.37 µM,> 100 µM,> 100 µM,36.5 µM,> 100 µM,61.9 µM,> 100 µM,2.61 µM,5.44
O=C(O)CCc1nc(-c2ccccc2-n2cccc2)no1,–,> 100,–,> 100 µM,–,> 100 µM,–,> 100 µM,–,> 100 µM,–,> 100 µM,–,> 100 µM,–,86.3 µM,–,> 100 µM,–,> 100
